pIC50: −log10 of the molar value. Active and inactive are the calls of the source. No cut-off for these calls is given here.
Tests used:
MGC-803 = experiment: Effect on LSD1 expression in human MGC803 cells up to 2.5 uM after 5 days by DAPI staining based immunofluorescence assay; assay type: functional, cell-based
[1] = biological target: Lysine-specific histone demethylase 1A (Homo sapiens, UniProt O60341)
Description: Inhibition of recombinant full length LSD1 (unknown origin) expressed in Escherichia coli BL21 (DE) using H3K4me2 substrate by fluorescence assay

Row | SMILES | Activity (MGC-803) | pIC50 [1]
1 | N/C(=N\O)c1cccc(/C=C/c2cc(O)c(O)cc2Br)c1 | inactive | –
2 | N/C(=N\O)c1ccc(/C=C/c2cc(O)c(O)cc2Br)cc1 | inactive | –
3 | Oc1ccc(/C=C/c2cc(O)cc(O)c2)cc1 [RESVERATROL] | – | 4.99
